The values below come from US5352608A (priority 1992, dated 1994).

The test system of assay [1] is Rhodobacter sphaeroides 2.4.1. The assay is classed as cell-based.
Assay [2] has as its system R. sphaeroides 2.4.1. It is filed as cell-based, Rhodobacter sphaeroides.
Assay [3] has as its system Rhodopseudomonas palustris 1e5. In words: Intrinsic HLR to TeO3^2- (MIC). The assay is classed as cell-based.
Assay [4] relates to E. coli. The conditions noted are these: exogenously supplied L-methionine; Scala and Williams; cited from earlier work.
Setting [5] is: Table 4, photoheterotrophic, 2 mM PO4^3-, 10 W/m^2.
Where [6] appears, read: Table 4, photoheterotrophic, SMM succinate, 10 W/m^2.

“Also recorded” adds a separate entry of the source. Read-outs that look alike come from different tables or passages of the source.

Consider `[O]=[Cr](=[O])=[O]` [CrO3], for which, in assay [1], the MIC was less than 20 µg/mL, the “MIC Low-PO4^3- Medium” value is less than 10 µg/mL and the “MIC Standard Medium” value turned out to be 20 µg/mL.

In the case of `[O-][I+3]([O-])([O-])O` [IO4^-], in assay [1], the “Decrease in resistance when extracellular phosphate reduced ten-fold” value was “three- to four-fold”, the “Intrinsic resistance relative to γ-3 Proteobacteria” value is listed as “twenty-fold” and the Resistance in words result was “resistance was shown”. Besides, in assay [2], the “Gas evolution in words” value is on record as “no gas evolution was observed” and the “Reduction to elemental state” value is “Neither IO4^-, SiO3^2-, nor SiO^42- was reduced to its elemental state”.

Take `O=[Te](=O)([O-])[O-].[K+].[K+]` [K2 TeO4]: the “Intrinsic resistance relative to E. coli” value in assay [3] turned out to be 40 times. Besides, in assay [1], the “MIC Low-PO4^3- Medium” value turned out to be 500 µg/mL, the “MIC Standard Medium” value amounted to 500 µg/mL, the Relative toxicity entry is reported as “SeO4^2- >TeO4^2- >TeO3^2- >SeO3^2- >Rh2 O3.5H2 O” and the Resistance in words result is listed as “High level resistance”. Also, in assay [2], the “Appearance of cells / metal deposit” value is “intracellular accumulation of a dense metal deposit” and the “Gas evolution in words” value was “Copious gas evolution”.

Consider `[K+].[O]=[Mn](=[O])(=[O])[O-]` [KMnO4], for which, in assay [1], the MIC is less than 20 µg/mL, the “MIC Low-PO4^3- Medium” value is less than 10 µg/mL and the “MIC Standard Medium” value is 20 µg/mL.

As to `N[C@@H](CS)C(=O)O` [L-cysteine, reference compound], the “Effect of medium supplement on HLR” value in assay [1] is listed as “solely responsible for the increased sensitivity to TeO3^2-”.

In the case of `CSCC[C@H](N)C(=O)O` [L-methionine, reference compound], the “TeO3^2- resistance enhancement by L-methionine” value in assay [4] is listed as “two-fold”. For the same compound, in assay [1], the “Effect of medium supplement on HLR” value was “no affect on HLR to TeO3^2-”.

On to `[O]=[Mo](=[O])=[O]` [MoO3], for which, in assay [1], the “Effect on cell growth as saturated solution” value (from here on “Effect on cell growth”) is reported as “did not affect cell growth”, the “MIC Low-PO4^3- Medium” value is on record as “sat'd sol'n”, the “MIC Standard Medium” value was “sat'd sol'n” and the Resistance in words result is given as “shows resistance”.

In the case of `[NH4+].[O]=[V](=[O])[O-]` [NH4 VO3], in assay [1], the “Effect on cell growth” value is recorded as “did not affect cell growth”, the “MIC Low-PO4^3- Medium” value is on record as “sat'd sol'n”, the “MIC Standard Medium” value is “sat'd sol'n” and the Resistance in words result was “shows resistance”.

As for `[Na+].[Na+].[O]=[Cr](=[O])([O-])[O-]` [Na2 CrO4], in assay [1], the MIC is less than 20 µg/mL, the “MIC Low-PO4^3- Medium” value was 20 µg/mL and the “MIC Standard Medium” value is 10 µg/mL.

For `[Na+].[Na+].[O]=[Mo](=[O])([O-])[O-]` [Na2 MoO4], in assay [1], the “Effect of extracellular phosphate on resistance” value (“Effect … on resistance” below) is “unaffected by extracellular phosphate levels” and the Resistance in words entry is listed as “resistance was shown”. In addition, the “MIC Low-PO4^3- Medium” value in assay [1] (setting [5]) was 1500 µg/mL. In addition, in assay [1] (setting [6]), the “MIC Standard Medium” value was 1400 µg/mL. In assay [2], the “Gas evolution in words” value was “no gas was evolved” and the “Reduction to elemental state” value is reported as “not reduced to their elemental states”.

For `O=S([O-])[O-].[Na+].[Na+]` [Na2 SO3], in assay [1], the “Effect … on resistance” value was “unaffected by extracellular phosphate levels”, the “MIC Low-PO4^3- Medium” value stood at 500 µg/mL, the “MIC Standard Medium” value came out at 600 µg/mL and the Resistance in words entry is listed as “resistance was shown”. Besides, in assay [2], the “Gas evolution in words” value is on record as “no gas was evolved” and the “Reduction to elemental state” value is recorded as “not reduced to their elemental states”.

Consider `O=[Se]([O-])[O-].[Na+].[Na+]` [Na2 SeO3], for which, in assay [1], the “MIC Low-PO4^3- Medium” value was 500 µg/mL, the “MIC Standard Medium” value was found to be 800 µg/mL, the Relative toxicity result was “SeO4^2- >TeO4^2- >TeO3^2- >SeO3^2- >Rh2 O3.5H2 O” and the Resistance in words entry is given as “High level resistance”. The “Appearance of cells / metal deposit” value in assay [2] is listed as “bright red in color”.

Consider `O=[Se](=O)([O-])[O-].[Na+].[Na+]` [Na2 SeO4], for which, in assay [1], the “MIC Low-PO4^3- Medium” value came to 100 µg/mL, the “MIC Standard Medium” value is 150 µg/mL, the Relative toxicity entry was “SeO4^2- >TeO4^2- >TeO3^2- >SeO3^2- >Rh2 O3.5H2 O” and the Resistance in words entry is reported as “High level resistance”. Also, the “Appearance of cells / metal deposit” value in assay [2] is “bright red in color”.

Consider `O=[Si]([O-])[O-].[Na+].[Na+]` [Na2 SiO3], for which, in assay [1], the “Decrease in resistance when extracellular phosphate reduced ten-fold” value is “three- to four-fold”, the “Intrinsic resistance relative to γ-3 Proteobacteria” value is “twenty-fold”, the “MIC Low-PO4^3- Medium” value is 100 µg/mL and the “MIC Standard Medium” value is 400 µg/mL. Besides, the Resistance in words entry in assay [1] is “resistance was shown”. Besides, in assay [2], the “Gas evolution in words” value was “no gas evolution was observed” and the “Reduction to elemental state” value is recorded as “Neither IO4^-, SiO3^2-, nor SiO^42- was reduced to its elemental state”.

With `[Na+].[Na+].[O]=[W](=[O])([O-])[O-]` [Na2 WO4], in assay [1], the “Effect … on resistance” value is recorded as “unaffected by extracellular phosphate levels” and the Resistance in words result is “resistance was shown”. Also, in assay [1] (setting [5]), the “MIC Low-PO4^3- Medium” value stood at 1600 µg/mL. Further, the “MIC Standard Medium” value in assay [1] (setting [6]) amounted to 1600 µg/mL. In addition, in assay [2], the “Gas evolution in words” value is given as “no gas was evolved” and the “Reduction to elemental state” value is recorded as “not reduced to their elemental states”.

Turning to `O.O.O.O.O.[O]=[Rh][O][Rh]=[O]` [Rh2 O3.5H2 O, rhodium sesquioxide], in assay [1], the “Effect on cell growth” value is “did not affect cell growth”, the “MIC Low-PO4^3- Medium” value is “sat'd sol'n”, the “MIC Standard Medium” value is on record as “sat'd sol'n” and the Relative toxicity entry was “SeO4^2- >TeO4^2- >TeO3^2- >SeO3^2- >Rh2 O3.5H2 O”. In assay [1], the Resistance in words entry is reported as “High level resistance; also recorded: shows resistance”. Further, the “Appearance of cells / metal deposit” value in assay [2] is “grayish bronze”.

In the case of `[O-2].[O-2].[O-2].[Sb+3].[Sb+3]` [Sb2 O3], in assay [1], the “Effect on cell growth” value was “did not affect cell growth”, the “MIC Low-PO4^3- Medium” value is on record as “sat,d sol'n”, the “MIC Standard Medium” value is given as “sat'd sol'n” and the Resistance in words result is given as “shows resistance”.

As for `[O]=[Sn]=[O]` [SnO2], in assay [1], the “Effect on cell growth” value is “did not affect cell growth”, the “MIC Low-PO4^3- Medium” value is on record as “sat'd sol'n”, the “MIC Standard Medium” value is reported as “sat'd sol'n” and the Resistance in words result is recorded as “shows resistance”.

With `N[C@@H](CSSC[C@H](N)C(=O)O)C(=O)O` [cystine, reference compound], the “Effect of medium supplement on HLR” value in assay [1] was “Neither cystine, glutathione nor thioglycollate, however, decreased HLR”.

As for `N[C@@H](CCC(=O)N[C@@H](CS)C(=O)NCC(=O)O)C(=O)O` [glutathione, reference compound], the “Effect of medium supplement on HLR” value in assay [1] was “Neither cystine, glutathione nor thioglycollate, however, decreased HLR”.

For the compound `O=C(O)CS` [thioglycollate, reference compound], the “Effect of medium supplement on HLR” value in assay [1] was “Neither cystine, glutathione nor thioglycollate, however, decreased HLR”.

Turning to Na2 HAsO4, in assay [1], the “Effect … on resistance” value is on record as “unaffected by extracellular phosphate levels” and the Resistance in words entry is listed as “resistance was shown”. In addition, the “MIC Low-PO4^3- Medium” value in assay [1] (setting [5]) amounted to 1600 µg/mL. In assay [1] (setting [6]), the “MIC Standard Medium” value came out at 1500 µg/mL. In assay [2], the “Gas evolution in words” value is “no gas was evolved” and the “Reduction to elemental state” value is given as “not reduced to their elemental states”.

Na2 SiO4: in assay [1], the “Decrease in resistance when extracellular phosphate reduced ten-fold” value was “three- to four-fold”, the “Intrinsic resistance relative to γ-3 Proteobacteria” value was “twenty-fold”, the “MIC Low-PO4^3- Medium” value stood at 100 µg/mL and the “MIC Standard Medium” value is 300 µg/mL. The Resistance in words entry in assay [1] is “resistance was shown”. In assay [2], the “Gas evolution in words” value is “no gas evolution was observed” and the “Reduction to elemental state” value is given as “Neither IO4^-, SiO3^2-, nor SiO^42- was reduced to its elemental state”.

With Na2 SnO4, in assay [1], the “Effect … on resistance” value is given as “unaffected by extracellular phosphate levels”, the “MIC Low-PO4^3- Medium” value was 800 µg/mL, the “MIC Standard Medium” value came to 800 µg/mL and the Resistance in words entry is reported as “resistance was shown”. Further, in assay [2], the “Gas evolution in words” value was “no gas was evolved” and the “Reduction to elemental state” value is given as “not reduced to their elemental states”.

For NaSiO4, in assay [1], the “MIC Low-PO4^3- Medium” value was 150 µg/mL and the “MIC Standard Medium” value turned out to be 400 µg/mL.
